In ChEMBL document CHEMBL1201862, “PubChem BioAssay data set” (2004):
The source made the active and inactive calls.

Columns and labels:
[1] = molecular target: T1, Polyadenylate-binding protein 1 (Homo sapiens, UniProt P11940); experiment: MLLE binding blockers, Cy5 peptide tracer – biochemical, fluorescence polarization, Cy5-PAM2 peptide, secondary, miRNA deadenylation inhibitor project, dose response (AID 602260); type: functional; details: read-out: IC50_Mean
[2] = molecular target: T1, Polyadenylate-binding protein 1; experiment: MLLE domain peptide-binding blockers, IC50 – biochemical, fluorescence polarization, FITC-PAM2 peptide, dose response (AID 602259); type: functional; details: read-out: IC50_Mean
[3] = molecular target: T2, Short transient receptor potential channel 4 (Mus musculus, UniProt Q9QUQ5); experiment: block of DAMGO-driven TRPC4 calcium entry – cell-based, HEK293 TRPC4/mu-opioid, Fluo-4 calcium, dose response (AID 434942); type: functional;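 further: potency of inhibitors blocking the TRPC4 calcium response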
T2 sequence (Q9QUQ5 whole entry): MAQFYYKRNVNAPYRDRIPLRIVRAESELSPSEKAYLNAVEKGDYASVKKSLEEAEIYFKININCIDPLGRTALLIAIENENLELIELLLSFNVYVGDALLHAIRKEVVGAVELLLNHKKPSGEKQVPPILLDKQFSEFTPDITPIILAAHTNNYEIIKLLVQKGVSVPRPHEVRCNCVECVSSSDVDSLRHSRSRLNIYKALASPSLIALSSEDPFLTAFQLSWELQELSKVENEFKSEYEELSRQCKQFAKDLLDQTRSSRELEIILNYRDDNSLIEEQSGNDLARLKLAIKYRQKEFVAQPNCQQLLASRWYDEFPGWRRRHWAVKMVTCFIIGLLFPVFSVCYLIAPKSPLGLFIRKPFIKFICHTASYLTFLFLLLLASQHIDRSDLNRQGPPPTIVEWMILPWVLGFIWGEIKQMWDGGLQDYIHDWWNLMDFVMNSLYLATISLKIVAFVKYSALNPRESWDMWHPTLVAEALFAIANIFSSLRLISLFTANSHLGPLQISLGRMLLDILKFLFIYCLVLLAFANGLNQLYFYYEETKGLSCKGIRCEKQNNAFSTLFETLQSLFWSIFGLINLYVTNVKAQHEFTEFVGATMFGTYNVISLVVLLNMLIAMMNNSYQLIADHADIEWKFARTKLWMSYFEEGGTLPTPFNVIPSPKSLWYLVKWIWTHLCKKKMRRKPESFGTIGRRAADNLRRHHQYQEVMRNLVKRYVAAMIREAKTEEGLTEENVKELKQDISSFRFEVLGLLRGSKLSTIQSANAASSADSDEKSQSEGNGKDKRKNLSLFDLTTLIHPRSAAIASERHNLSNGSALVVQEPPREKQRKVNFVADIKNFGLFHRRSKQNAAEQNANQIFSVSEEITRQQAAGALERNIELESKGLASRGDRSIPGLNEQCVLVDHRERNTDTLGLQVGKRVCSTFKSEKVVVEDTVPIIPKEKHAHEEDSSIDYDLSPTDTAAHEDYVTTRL

[4] = tested on: BJ; experiment: BJ-TERT fibroblast viability loss – cell-based, RAS-independent, luminescence, dose response (AID 1933); type: functional; details: Homo sapiens
[5] = tested on: BJ; experiment: cells; type: functional, cell-based; details: Homo sapiens
[6] = tested on: BJ; experiment: BJ-TERT-LT-ST fibroblast viability loss – cell-based, RAS-independent, luminescence, dose response (AID 1935); type: functional; details: Homo sapiens;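 further: BJ fibroblasts immortalized with TERT plus LT and ST oncogenes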
[7] = DRD fibroblast viability loss – cell-based, non-viral oncogenic, luminescence, dose response (AID 1934); type: functional; details: Homo sapiens
[8] = molecular target: T3, Replicative DNA helicase DnaB (Mycobacterium tuberculosis, UniProt P9WMR3); experiment: DnaB intein splicing inhibitors, dose response, biochemical, cell-free fluorescence (AID 449749); type: functional
T3 sequence (P9WMR3 whole entry): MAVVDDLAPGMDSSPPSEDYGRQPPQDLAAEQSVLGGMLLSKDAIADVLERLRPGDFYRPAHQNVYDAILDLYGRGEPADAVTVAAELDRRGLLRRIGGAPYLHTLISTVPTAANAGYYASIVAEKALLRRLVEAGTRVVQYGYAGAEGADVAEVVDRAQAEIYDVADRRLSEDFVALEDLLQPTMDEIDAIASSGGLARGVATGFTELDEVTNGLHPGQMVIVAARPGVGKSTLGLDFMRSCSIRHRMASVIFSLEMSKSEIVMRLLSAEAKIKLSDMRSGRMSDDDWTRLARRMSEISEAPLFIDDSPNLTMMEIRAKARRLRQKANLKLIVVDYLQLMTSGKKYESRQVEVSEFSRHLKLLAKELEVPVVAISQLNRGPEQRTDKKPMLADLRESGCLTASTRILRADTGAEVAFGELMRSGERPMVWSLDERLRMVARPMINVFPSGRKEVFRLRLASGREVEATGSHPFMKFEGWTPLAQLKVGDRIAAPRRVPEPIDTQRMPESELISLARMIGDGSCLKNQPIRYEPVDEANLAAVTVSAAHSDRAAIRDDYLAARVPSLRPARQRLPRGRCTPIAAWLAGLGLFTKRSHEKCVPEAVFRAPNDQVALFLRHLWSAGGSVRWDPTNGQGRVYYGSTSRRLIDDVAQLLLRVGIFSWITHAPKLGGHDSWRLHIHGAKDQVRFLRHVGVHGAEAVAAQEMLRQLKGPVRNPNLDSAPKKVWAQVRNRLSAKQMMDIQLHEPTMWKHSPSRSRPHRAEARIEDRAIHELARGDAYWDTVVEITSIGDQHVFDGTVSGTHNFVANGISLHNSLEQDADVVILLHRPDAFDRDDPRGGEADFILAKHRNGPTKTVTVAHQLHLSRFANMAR

[9] = molecular target: T4, Protein RecA (Mycobacterium tuberculosis, UniProt P9WHJ3); experiment: Fluorescence Cell-Free Homogeneous Dose Retest to Identify Inhibitors of RecA-Intein Splicing Activity. [Related pubchem assays (depositor defined):AID2097, AID2223, AID489010, AID492950]; type: functional
T4 sequence (P9WHJ3 whole entry): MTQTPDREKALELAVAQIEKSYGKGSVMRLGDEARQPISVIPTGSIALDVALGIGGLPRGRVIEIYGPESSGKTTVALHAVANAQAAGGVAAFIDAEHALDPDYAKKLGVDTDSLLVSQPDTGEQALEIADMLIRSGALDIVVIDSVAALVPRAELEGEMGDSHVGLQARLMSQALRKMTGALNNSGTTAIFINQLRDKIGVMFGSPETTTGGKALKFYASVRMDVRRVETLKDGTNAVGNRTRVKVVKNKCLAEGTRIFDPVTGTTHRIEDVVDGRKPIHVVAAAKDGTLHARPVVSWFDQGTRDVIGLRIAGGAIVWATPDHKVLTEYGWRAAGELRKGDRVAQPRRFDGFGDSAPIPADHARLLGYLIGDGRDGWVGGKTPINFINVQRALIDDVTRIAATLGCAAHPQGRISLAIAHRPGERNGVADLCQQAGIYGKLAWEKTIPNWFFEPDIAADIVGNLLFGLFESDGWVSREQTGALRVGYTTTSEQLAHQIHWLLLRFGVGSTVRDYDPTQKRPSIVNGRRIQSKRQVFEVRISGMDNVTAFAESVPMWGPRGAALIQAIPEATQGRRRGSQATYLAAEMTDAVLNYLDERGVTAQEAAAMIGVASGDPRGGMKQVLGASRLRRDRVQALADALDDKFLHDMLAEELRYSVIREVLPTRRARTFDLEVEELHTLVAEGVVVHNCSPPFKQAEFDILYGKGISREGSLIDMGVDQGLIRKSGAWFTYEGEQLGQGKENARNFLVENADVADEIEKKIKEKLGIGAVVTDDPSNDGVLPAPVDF

[10] = Luminescence Cell-Based Dose Retest to Confirm Inhibitors of Cancer Stem Cells. [Related pubchem assays (depositor defined):AID2717, AID2721]; type: functional; details: Homo sapiens
[11] = molecular target: T5, Heat shock factor protein 1 (Mus musculus, UniProt P38532); experiment: enhancement of HSF1-driven luciferase signal – cell-based, NIH3T3, luminescence, dose retest, confirmation (AID 435004); type: functional;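 further: stress induced by proteasome inhibitor MG132 added 30 min after compound; luciferase reporter driven by HSF1 response element in NIH3T3 cells; actives raise luminescence as potentiators of the MG132 stress response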
T5 sequence (P38532 whole entry): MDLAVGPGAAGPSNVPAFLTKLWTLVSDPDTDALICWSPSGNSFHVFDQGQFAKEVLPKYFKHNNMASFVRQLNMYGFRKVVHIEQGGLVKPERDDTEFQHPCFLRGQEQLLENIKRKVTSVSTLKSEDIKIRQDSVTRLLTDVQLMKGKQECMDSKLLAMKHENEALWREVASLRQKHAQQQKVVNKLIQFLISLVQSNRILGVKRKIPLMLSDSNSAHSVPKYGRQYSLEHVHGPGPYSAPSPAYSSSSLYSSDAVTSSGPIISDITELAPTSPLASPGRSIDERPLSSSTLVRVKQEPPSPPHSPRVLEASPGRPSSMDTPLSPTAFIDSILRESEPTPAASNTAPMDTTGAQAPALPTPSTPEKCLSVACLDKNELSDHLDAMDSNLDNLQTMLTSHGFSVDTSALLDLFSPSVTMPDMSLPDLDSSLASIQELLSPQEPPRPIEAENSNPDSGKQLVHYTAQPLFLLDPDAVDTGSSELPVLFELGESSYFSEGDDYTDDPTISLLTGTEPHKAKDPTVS

[12] = molecular target: Genome polyprotein (dengue virus type 2, UniProt P29990); experiment: flavivirus cap methylation enzyme inhibition – biochemical, confirmation dose response, primary screen (AID 588689); type: functional
[13] = viability of PTEN-deleted HCT116 cells – cell-based, HCT116 PTEN knockout, dose response (AID 1047); type: functional;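 further: HCT116 colon tumor cells with PTEN knocked out; cells exposed to compound for 60 hours before readout; potency for loss of cell viability measured by luminescence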
[14] = viability of HCT116 lacking mutant beta-catenin – cell-based, human colon tumor, dose response (AID 1045); type: functional;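 further: HCT116 colon tumor cells with beta catenin knocked out; cells exposed to compound for 60 hours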
[15] = molecular target: T6, DNA repair and recombination protein RAD54-like (Homo sapiens, UniProt Q92698); experiment: RAD54 Holliday junction migration blockers – biochemical, fluorescence, cherry-picked samples, dose series, confirmation (AID 651657); type: functional
T6 sequence (Q92698 whole entry): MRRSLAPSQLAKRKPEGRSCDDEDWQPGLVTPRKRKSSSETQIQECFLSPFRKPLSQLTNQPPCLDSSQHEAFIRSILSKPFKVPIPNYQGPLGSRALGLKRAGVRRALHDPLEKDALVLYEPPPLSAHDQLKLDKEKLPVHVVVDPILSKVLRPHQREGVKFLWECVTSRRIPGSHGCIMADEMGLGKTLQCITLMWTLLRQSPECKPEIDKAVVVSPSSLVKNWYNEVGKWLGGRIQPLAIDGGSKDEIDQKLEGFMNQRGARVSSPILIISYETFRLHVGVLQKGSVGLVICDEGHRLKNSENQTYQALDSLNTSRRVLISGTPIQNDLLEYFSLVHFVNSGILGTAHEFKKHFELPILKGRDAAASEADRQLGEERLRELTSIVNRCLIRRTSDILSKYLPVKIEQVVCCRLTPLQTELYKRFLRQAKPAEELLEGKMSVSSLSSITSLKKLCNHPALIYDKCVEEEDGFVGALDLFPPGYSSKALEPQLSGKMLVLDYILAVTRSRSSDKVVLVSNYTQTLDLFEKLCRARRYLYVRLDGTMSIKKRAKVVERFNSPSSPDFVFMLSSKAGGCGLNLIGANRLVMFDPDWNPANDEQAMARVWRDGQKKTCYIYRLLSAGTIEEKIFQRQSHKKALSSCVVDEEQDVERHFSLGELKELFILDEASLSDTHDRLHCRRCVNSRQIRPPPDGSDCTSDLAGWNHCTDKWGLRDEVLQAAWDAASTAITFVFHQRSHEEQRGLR

[16] = molecular target: T7, DNA repair protein RAD52 homolog (Homo sapiens, UniProt P43351); type: functional, biochemical
T7 sequence (P43351 whole entry): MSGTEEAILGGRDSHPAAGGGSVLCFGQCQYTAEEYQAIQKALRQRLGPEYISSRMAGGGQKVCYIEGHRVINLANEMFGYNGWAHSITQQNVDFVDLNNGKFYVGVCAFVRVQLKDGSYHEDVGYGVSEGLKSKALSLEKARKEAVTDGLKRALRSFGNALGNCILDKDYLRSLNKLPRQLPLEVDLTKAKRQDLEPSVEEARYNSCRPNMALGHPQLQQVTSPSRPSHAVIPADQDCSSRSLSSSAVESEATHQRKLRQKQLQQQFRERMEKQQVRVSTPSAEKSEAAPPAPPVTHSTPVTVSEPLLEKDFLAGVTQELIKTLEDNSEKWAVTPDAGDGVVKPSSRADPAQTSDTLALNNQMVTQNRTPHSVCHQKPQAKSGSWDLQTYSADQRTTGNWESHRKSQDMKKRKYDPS

T1 sequence (P11940 whole entry, the tested form may be a part): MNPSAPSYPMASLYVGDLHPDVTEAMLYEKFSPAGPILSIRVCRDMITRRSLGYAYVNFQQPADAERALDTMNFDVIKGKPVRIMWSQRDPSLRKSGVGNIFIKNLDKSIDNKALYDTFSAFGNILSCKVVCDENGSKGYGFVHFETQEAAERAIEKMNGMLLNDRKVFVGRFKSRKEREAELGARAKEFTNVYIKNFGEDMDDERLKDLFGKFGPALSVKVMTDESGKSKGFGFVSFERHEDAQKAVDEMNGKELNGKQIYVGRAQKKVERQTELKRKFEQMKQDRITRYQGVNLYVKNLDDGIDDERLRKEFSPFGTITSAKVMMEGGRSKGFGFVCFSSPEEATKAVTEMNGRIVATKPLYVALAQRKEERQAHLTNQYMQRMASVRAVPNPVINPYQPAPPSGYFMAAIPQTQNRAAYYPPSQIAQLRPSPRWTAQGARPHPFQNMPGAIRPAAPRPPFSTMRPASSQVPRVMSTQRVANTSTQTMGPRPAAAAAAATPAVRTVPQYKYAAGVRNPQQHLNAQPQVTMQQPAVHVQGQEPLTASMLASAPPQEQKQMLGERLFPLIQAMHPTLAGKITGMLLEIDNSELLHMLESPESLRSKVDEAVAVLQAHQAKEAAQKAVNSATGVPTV
Sequence of Genome polyprotein (P29990 2492-3391 limits assumed): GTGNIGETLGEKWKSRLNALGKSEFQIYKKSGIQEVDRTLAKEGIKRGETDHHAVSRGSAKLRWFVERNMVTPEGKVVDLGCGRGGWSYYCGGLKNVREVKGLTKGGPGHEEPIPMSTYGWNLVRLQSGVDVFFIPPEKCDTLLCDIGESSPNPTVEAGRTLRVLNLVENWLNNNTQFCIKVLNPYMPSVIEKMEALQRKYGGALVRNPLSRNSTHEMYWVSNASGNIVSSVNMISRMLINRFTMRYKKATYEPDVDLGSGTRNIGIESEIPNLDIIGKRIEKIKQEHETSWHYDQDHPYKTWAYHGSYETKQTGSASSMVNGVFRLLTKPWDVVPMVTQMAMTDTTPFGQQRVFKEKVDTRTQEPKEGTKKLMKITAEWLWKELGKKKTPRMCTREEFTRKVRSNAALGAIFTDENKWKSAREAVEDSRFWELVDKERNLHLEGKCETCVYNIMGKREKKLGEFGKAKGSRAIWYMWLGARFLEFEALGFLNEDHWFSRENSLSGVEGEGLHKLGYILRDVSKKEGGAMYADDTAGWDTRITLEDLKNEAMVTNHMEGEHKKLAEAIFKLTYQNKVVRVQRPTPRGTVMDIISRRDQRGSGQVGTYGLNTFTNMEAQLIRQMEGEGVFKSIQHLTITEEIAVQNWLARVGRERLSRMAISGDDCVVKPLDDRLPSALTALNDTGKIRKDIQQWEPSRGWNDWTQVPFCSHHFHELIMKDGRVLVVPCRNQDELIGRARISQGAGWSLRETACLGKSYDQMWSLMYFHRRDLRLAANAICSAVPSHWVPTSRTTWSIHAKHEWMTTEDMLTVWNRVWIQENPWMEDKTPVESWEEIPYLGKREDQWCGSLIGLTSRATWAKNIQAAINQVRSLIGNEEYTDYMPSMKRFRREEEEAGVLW

Structure (SMILES): CCOc1ccc(Cn2c(SCCCCC#N)nc3c2c(=O)n(C)c(=O)n3C)cc1OCC
- IC50 [1]: > 66 µM (inactive)
- IC50 [2]: > 66 µM (inactive)

Structure (SMILES): Brc1ccc(CN2C3=NCCCN3c3ccccc32)cc1
- EC50 [3]: 0.531 µM (active)

Structure (SMILES): O=C(NC1CCCC1)C(c1ccc(Cl)cc1)N(Cc1ccc(F)cc1)C(=O)CCl (stereo not given)
- EC50 [4]: 7.08 µM (inconclusive)
- EC50 [5]: 16.4 µM (active)
- EC50 [6]: > 150 µM (inconclusive)
- EC50 [7]: 10.5 µM (inconclusive)
- AC50 [8]: 1.16 µM (active)
- EC50 [9]: 1.07 µM (active)

Structure (SMILES): O=C(NCCN1CCOCC1)c1ccc2c(c1)N(Cc1ccc(F)cc1)C(=O)CS2
- EC50 [3]: 4.73 µM (active)

Structure (SMILES): CCCn1nc([N+](=O)[O-])c(C(C#N)c2nc3ccccc3o2)c(Cl)c1=O (stereo not given)
- AC50 [10]: 4.55 µM (active)
- EC50 [3]: 6.68 µM (active)
- EC50 [11]: > 260 µM (inactive)
- IC50 [12]: 34.7 µM (active)

Structure (SMILES): Cc1nc(SCC(=O)c2cc3ccccc3oc2=O)c(C#N)c(-c2ccccc2)c1C(=O)Nc1ccccc1
- EC50 [13]: 8.4 µM (active)
- EC50 [14]: 7.01 µM (active)

Structure (SMILES): CN(C)CCCNc1nc2cc(-c3ccc4c(ccn4C)c3)sc2c(=O)n1C
- AC50 [15]: 28.7 µM (active)
- AC50 [16]: 4.02 µM (active)

Structure (SMILES): CCOC(=O)c1cnc2ccc(OC)cc2c1Nc1ccc(N2CCN(C)CC2)cc1
- EC50 [11]: > 260 µM (inactive)
- AC50 [15]: 34 µM (active)
